Laboratory results from patent US11970436B2, “Pharmaceutical compositions comprising monoterpenes” (NEONC Technologies, Inc., priority 2010, dated 2024).
pEC50: −log10 of the molar value.

Tests used:
cancer stem cells USC-04 = assay: MTT cytotoxicity assay on cancer stem cells USC-04; type: cell-based; conditions: Homo sapiens
Excerpt: (§1) Verapamil is used as an inhibitor of drug efflux pump proteins such as P-glycoprotein.

interleukin 8 (IL8) = assay: ELISA for IL-8 secretion; type: cell-based; conditions: U87 human glioma cells, POH for 48 hours
Method: (§2) ELISA was performed after cells were treated with POH for 48 hours.
(§3) Pyrko et al. The unfolded protein response regulator GRP78/BiP as a novel target for increasing chemosensitivity in malignant gliomas. Cancer Res 67(20):9809-16, 2007. […] In addition, it may overcome the immunosuppressive functions of transforming growth factor beta-2 (TGFβ-2) secreted by glioma cells.

glioma = assay: Boyden matrigel chamber invasion; type: cell-based
[1] = system: U251, LN229 and U87 human glioma cells; assay: MTT cytotoxicity assay, POH combined with DMC; type: cell-based; conditions: MTT and colony formation assays, FIG. 5A
Excerpt: (§4) Pyrko et al. HIV-1 protease inhibitors nelfinavir and atazanavir induce malignant glioma death by triggering endoplasmic reticulum stress. Cancer Res 67(22): 10920-10928, 2007.

VEGF = assay: ELISA for VEGF secretion; type: cell-based; conditions: U87 human glioma cells, POH for 48 hours
Method: as §2, §3

[2] = system: glioblastoma cancer stem cells (USC04); assay: Sphere formation assay (SFA); type: cell-based, human; conditions: POH 0-1.5 mM for 6 days
Method: USC04 cells were incubated with varying concentrations of POH (0-1.5 mM) for 6 days.

[3] = system: glucose-regulated protein 78 (GRP78); assay: Western blot ER stress marker GRP78; type: cell-based, human; conditions: 20 hours
Method: (§5) The treatments for different lanes of the Western blot are as follows: 1: No treatment; 2: 0.5 mM purified POH; 3: 1.5 mM purified POH; 4: 0.5 mM Sigma POH; 5: 1.5 mM Sigma POH; 6: 0.5 mM Wako POH; 7: 1.5 mM Wako POH; 8: Positive Control (DMC 40uM). Sigma POH is the POH purchased from Sigma Chemicals. Wako POH is the POH purchased from […]. Cells were treated with different agents or mock treated for 20 hours before being lysed.
(§6) Sigma POH is the POH purchased from Sigma Chemicals.
(§7) GRP78 is an anti-apoptotic protein the level of which is increased in response to stress. CHOP is a proapoptotic protein signaling for apoptosis. Pyrko et al. The unfolded protein response regulator GRP78/BiP as a novel target for increasing chemosensitivity in malignant gliomas. Cancer Research 67(20):9809-16, 2007.
(§8) U251 TMZ-sensitive and TMZ-resistant (U251/TR1, U251/TR2) cells were treated with Sigma POH (1.5 mM) or purified POH (1.5 mM) for 20 hours, then Western blot was performed.

glioma cells = assay: Apoptosis / cell killing by rolipram with or without POH; type: cell-based
Method: When cells were treated with rolipram alone, apoptosis occurred only after 48 hours post the addition of high concentrations of rolipram (e.g., 1 mM). Synergistic cell killing by rolipram and POH occurred within a much shorter time period, i.e., 6 hours after the addition of the drugs. Chen et al. The type IV phosphodiesterase inhibitor rolipram induces expression of the cell cycle inhibitors p21 Cip 1 and p27Kip1, resulting in growth inhibition, increased differentiation, and subsequent apoptosis of malignant A-12 glioma cells. Cancer Biology & Therapy, Vol. 1:3, 268-276, 2003.

[4] = system: glioma tumor cells (U251 cells); assay: MTT cytotoxicity assay, glioma cells versus normal brain cells; type: cell-based, human; conditions: FIG. 14
Excerpt: as §1

H-Ras [5] = assay: H-ras production in glioblastoma cancer stem cells; type: cell-based, human; conditions: USC-02 and USC-04, POH for 24 hours
Method: Two glioblastoma cancer stem cell lines (USC-02, USC-04) were treated by POH for 24 hours. USC-02 and USC-04 are two independent primary cancer stem cell lines isolated from glioblastoma tissue from two different patients.

[6] = oral, cited from earlier work
[7] = system: cell lines that were TMZ resistant; assay: Cytotoxicity assay, POH combined with TMZ, resistant lines; type: cell-based; conditions: POH and TMZ
Method: (§9) Cytotoxicity assays were carried out after cells were treated with POH in combination with temozolomide (TMZ), the standard alkylating agent used in the treatment of malignant gliomas. […] This effect was also seen in cell lines that were TMZ resistant.

U251 human glioma cells [8] = assay: MTT cytotoxicity assay, POH combined with TMZ; type: cell-based; conditions: POH and TMZ, FIG. 5C
Method: as §9

[9] = system: brain endothelial cells (BECs); assay: Transepithelial electrical resistance (TEER), in vitro blood brain barrier model; type: cell-based; conditions: 0.03% POH for 20 hours, compared to medium only, 0.01% and 0.02% POH
Method: In these experiments, brain endothelial cells (BECs) were used as an in vitro model of blood brain barrier. The increase in TEER in each group over time corresponds to increased confluency of the cells in culture. TEER decreased when cells were treated by 0.03% POH for 20 hours compared to medium only, 0.01% POH treatment, and 0.02% POH treatment.
Transepithelial electrical resistance (TEER) assays were performed assessing the ability of POH to increase paracellular permeability (FIG. 7A). In these experiments, brain endothelial cells (BECs) were used as an in vitro blood brain barrier model. […] TEER decreased when cells were treated by 0.03% POH for 20 hours compared to medium only, 0.01% POH treatment, and 0.02% POH treatment. The increase in TEER in each group over time corresponds to increased confluency of the cells in culture.

[10] = system: recurrent malignant gliomas; conditions: intranasal delivery, patients with recurrent malignant gliomas; cited from earlier work
[11] = system: CCAAT/enhancer binding protein (CHOP); assay: Western blot apoptosis marker CHOP; type: cell-based, human; conditions: 20 hours
Method: as §5, §6, §7, §8

[12] = system: normal stem cells mSVZ (mouse SVZ stem cells), brain endothelial cells (BECs) and astrocytes; assay: Comparison of POH IC50 values, normal cells; type: cell-based; conditions: FIG. 18, normal cells
[13] = system: glioblastoma cancer stem cell line USC-02; assay: MTT assay on glioblastoma cancer stem cells USC-02; type: cell-based, human
Excerpt: as §1

U251 human glioma cells [14] = assay: MTT cytotoxicity assay, POH combined with Nelfinavir; type: cell-based; conditions: FIG. 5B
Excerpt: as §4

K-Ras = assay: Western blot K-Ras expression; type: cell-based, human; conditions: U251 glioma cells, 24 hours
Method: (§10) U251 glioma cells were treated with Sigma POH or purified POH for 24 hours, then Western blot was performed.

H-Ras [15] = assay: Western blot H-Ras expression; type: cell-based, human; conditions: U251 glioma cells, 24 hours
Method: as §10

[16] = system: intracranial glioma model; assay: Intracranial glioma model in athymic nu/nu mice, survival; type: in vivo; conditions: mice treated with TMZ; untreated about four weeks
Method: Male athymic nu/nu mice (6-8 weeks old) will be employed for this research. Rodent subcutaneous/intracranial glioma model can be established as follows. Six to eight week old athymic nu/nu mice will be anesthesized with intraperitoneal injections of ketamine (80 mg/kg) and xylazine (10 mg/kg). For the intracranial glioma model, the mice are placed into a stereotactic head frame (Harvard Apparatus), and local anesthetic (0.2 cc of 0.25% xylocaine) is injected into the right frontal scalp. A knife blade is used to make a small incision, and a drill bit is used to make a small opening in the right frontal skull at the level of the coronal suture. Glioma cells (1×10^5 cells/10 μl), for example, U-87 human glioma cells, will be loaded into a calibrated Hamilton syringe. The needle tip will be placed precisely into the right frontal lobe of the […], and cells will be slowly injected using a control push from the Hamilton syringe. After the injection is finished, the syringe and needle will be removed, and the wound closed.
Brains will be harvested, and tumor size determined. Survival curves will be constructed by following the mice until they develop neurological deficits. Our experience has been that survival is about four weeks after implantation for untreated mice, and up to 8 weeks for mice treated with TMZ.

[17] = system: U251 temozolomide-resistant cells (U251/TR1 and U251/TR2); type: cell-based, human
Excerpt: (§11) U251/TR1 and U251/TR2 refer to two temozolomide-resistant U251 cell lines.

[18] = system: U251, U87, LN299 and A172 human glioma cells; type: cell-based
[19] = system: U251 human glioma cells (temozolomide-sensitive); type: cell-based
Excerpt: as §11

[20] = system: U251 temozolomide-resistant cells (U251/TR1); assay: Colony formation assay on temozolomide-resistant U251; type: cell-based, human; conditions: FIG. 3C
B16-F1 melanoma cells = assay: Colony formation assay, POH plus radiation; type: cell-based; conditions: FIG. 4B
Method: (§12) Cells were treated with 325 μM or 650 μM POH prior to radiation at the doses of 2, 5 or 10 Grays (Gy). […] This was confirmed for another human glioma cell line (U251) and also for a melanoma cell line (B16-F1) (FIG. 4B).

[21] = system: U251 human malignant glioma cells; assay: Colony formation assay, POH plus radiation; type: cell-based; conditions: FIG. 4B
Method: as §12

human A172 glioma cells = assay: Colony formation assay, POH plus radiation; type: cell-based; conditions: 325 μM or 650 μM POH prior to radiation at 2, 5 or 10 Gy
Method: as §12

[22] = U251 TMZ-sensitive and TMZ-resistant (U251/TR1, U251/TR2) cells, 1.5 mM

Cc1ccc(C)c(-c2cc(C(F)(F)F)nn2-c2ccc(S(N)(=O)=O)cc2)c1 [DMC, dimethyl-celecoxib, reference compound]
pEC50 (cancer stem cells USC-04; FIG. 15B): 4.11

C=C(C)[C@@H]1CC=C(CO)CC1 [POH, perillyl alcohol]
production of interleukin 8 (IL8) by glioma cells (interleukin 8 (IL8)): inhibited production | glioma invasion (glioma): inhibit glioma invasion | cytotoxicity in combination with dimethyl-celecoxib (DMC) [1]: at least additive | production of VEGF by glioma cells (VEGF): inhibited production | number of spheres formed [2]: decreased the number of spheres | level of GRP78 ([3]; U251, U87 and A172 cells): up-regulated | time after addition of the drugs at which synergistic cell killing occurred (glioma cells; rolipram and POH in combination): 6 h | pEC50 (cancer stem cells USC-04; FIG. 15A): 3.52 | sensitivity of U251 cells to POH relative to brain endothelial cells (BECs) and astrocytes [4]: more sensitive | H-ras production (H-Ras [5]): decreased H-ras production | anti-cancer efficacy [6]: limited | tolerability ([6]; mainly gastrointestinal side effects): generally poorly tolerated | cytotoxicity in combination with temozolomide (TMZ) [7]: also seen | cytotoxicity in combination with temozolomide (TMZ) (U251 human glioma cells [8]): at least additive | TEER [9]: decreased | duration of disease remission in several patients [10]: ≤ 3 years | patients achieving 6 month progression-free period [10]: 50% | side effects from the treatment [10]: almost non-existent | level of CHOP ([11]; U251, U87 and A172 cells): up-regulated | POH IC50 compared among cell lines [12]: most resistant | POH IC50 compared among cell lines ([13]; FIG. 18, USC-02 cells): most sensitive | sensitivity of USC-02 to POH relative to U251 cells or normal stem cells (mSVZ) ([13]; MTT, 48 hrs): more sensitive | cytotoxicity in combination with Nelfinavir (NFV) (U251 human glioma cells [14]): at least additive

C=C(C)[C@@H]1CC=C(CO)CC1 [Sigma POH, (S)-perillyl alcohol]
K-Ras expression (K-Ras): decreased | H-Ras expression (H-Ras [15]): decreased

Cn1nnc2c(C(N)=O)ncn2c1=O [TMZ, temozolomide]
survival after implantation [16]: up to 8 weeks

C=C(C)[C@@H]1CC=C(CO)CC1 [purified POH, (S)-perillyl alcohol]
cytotoxicity (MTT), cell killing [17]: effective in killing | expression of GRP-78 [3, 22]: increased expression | cytotoxicity (MTT), cell killing [18]: efficacy | cytotoxicity (MTT), cell killing [19]: effective in killing | colony formation [20]: efficacy | expression of CHOP [11, 22]: increased expression | cytotoxicity in combination with radiation (B16-F1 melanoma cells): synergistic cytotoxicity | cytotoxicity in combination with radiation [21]: synergistic cytotoxicity | cell killing in combination with radiation (human A172 glioma cells): synergistically

COc1ccc(C2CNC(=O)C2)cc1OC1CCCC1 (stereo not shown) [rolipram, reference compound]
time after addition at which apoptosis occurred (glioma cells; rolipram alone, high concentrations (e.g., 1 mM)): ≥ 48 h
